Test results from patent US10786505B2, “Administration of NEDD8-activating enzyme inhibitor and chemotherapeutic agents” (Millennium Pharmaceuticals, Inc., priority 2013, dated 2020).

What was measured:
Type in all cases: in vivo, mice
LXFE409 xenograft model = assay: Combination of docetaxel or carboplatin and MLN4924 in LXFE409 xenograft model; settings: for average tumor volume day 21: LXFE409 xenograft
Description: LXFE409 squamous non small cell lung cancer tumor fragments are implanted into the subcutaneous space in the flank of female NMRI nu/nu mice (5-7 weeks, Janvier Labs, Saint Berthevin, France).
(§1) Docetaxel (Henry Schein, Inc., Pittsburgh Pa., Qilu Pharmaceutical Co., Ltd., Jinan, Shandong, China, and Sanofi-Aventis) is formulated in 0.9% saline and administered by intravenous injection (IV) once weekly (QW) at 5 mg/kg or 10 mg/kg.
(§2) Carboplatin (CARBOplatin Injection, Hospira, Inc., Qilu Pharmaceutical Co., Ltd. Jinan, Shandong, China, and Teva Gry-Pharma GmbH, Ulm, Germany) is formulated in 0.9% saline and administered by IP injection once weekly (QW) at 50 mg/kg. The once weekly schedule is also described as every 7 days (Q7D).
(§3) Tumors are measured twice weekly using a vernier caliper. Tumor volumes are calculated using standard procedures (0.5×(length×width^2)). […] Tumor size and body weight are measured approximately twice a week for the duration of the study. Mice are euthanized when their tumor volume reached 10% of their body weight, or when the average tumor volume of a treatment or control group reached approximately 2000 mm^3. Tumor growth continued to be monitored after the dosing period in some studies. Average tumor volume is reported as a function of time for selected groups of selected studies in Figures A, B, and C.
(§4) Measurements from day 0 to 18, 21 or 22 are analyzed as specified in Tables 4-9. All tumor volumes have a value of 1 added to them before log10 transformation. For each animal, the log tumor volume at day 0 is subtracted from the log tumor volume on the subsequent days. This difference vs. time is used to calculate an area under the curve (AUC) for each animal using the trapezoid rule. […] The synergy score for the combination of agents A and B is defined as 100*(mean(AUCAB)−mean(AUCA)−mean(AUCB)+mean(AUCctl))/mean(AUCctl): where AUCAB, AUCA, AUCB, and AUCctl are the AUC values for animals in the combination group, the A group, the B group, and the control group, respectively. The standard error of the synergy score is computed based on the variation in the AUC values among the animals. […] If the P-value is above 0.05, then the combination is considered to be additive. If the P-value is below 0.05, and the synergy score is less than zero, then the combination is considered to be synergistic. […] Otherwise, the combination is classified as antagonistic.

NCI-H69 xenograft model [1] = assay: Combination of carboplatin and MLN4924 in NCI-H69 xenograft model
Description: (§5) NCI-H69 or NCI-H82 small cell lung tumor fragments (30- to 40-mg) are implanted into the subcutaneous space in the area of the right flank of NCr nu/nu mice (7-10 weeks, Charles River Laboratories, Inc, Frederick Md. or Wilmington, Mass.) using a 12-gauge trocar.
as §2, §3, §4

[2] = tested on: NCI-H1650 xenograft model; assay: Combination of docetaxel and MLN4924 in NCI-H1650 xenograft model
Source text: NCI-H1650 (2×10^6) tumor cells in RPMI-1640 media are mixed with an equal volume of Matrigel (BD Biosciences) and aseptically injected into the subcutaneous space in the right dorsal flank of Balb/c Nude mice (age 4-6 weeks, Shanghai SINO-British SIPPR/BK Lab Animal Ltd.) using a 25-gauge needle.
as §1, §3, §4

LU1143 xenograft model = assay: Combination of docetaxel or carboplatin and MLN4924 in LU1143 xenograft model; settings: 45 mg/kg MLN4924 BID SC
Description: as §1, §2, §3
Measurements from day 0 to 18, 21 or 22 are analyzed as specified in Tables 4-9. All tumor volumes have a value of 1 added to them before log10 transformation. For each animal, the log tumor volume at day 0 is subtracted from the log tumor volume on the subsequent days. This difference vs. time is used to calculate an area under the curve (AUC) for each animal using the trapezoid rule. […] The synergy score for the combination of agents A and B is defined as 100*(mean(AUCAB)−mean(AUCA)−mean(AUCB)+mean(AUCctl))/mean(AUCctl): where AUCAB, AUCA, AUCB, and AUCctl are the AUC values for animals in the combination group, the A group, the B group, and the control group, respectively. The standard error of the synergy score is computed based on the variation in the AUC values among the animals. […] If the P-value is above 0.05, then the combination is considered to be additive. […]

NCI-H69 xenograft model [3] = assay: Combination of cisplatin and MLN4924 in NCI-H69 xenograft model
Description: as §5, §3, §4

NCI-H82 xenograft model = assay: Combination of cisplatin and MLN4924 in NCI-H82 xenograft model
Description: as §5, §3, §4

[4] = tested on: PHTX249Pa xenograft model; assay: Combination of gemcitabine and MLN4924 in PHTX249Pa xenograft model
Description: The PHTX249 Pa pancreatic xenograft model was established from a patient-derived tumor collected during surgery from a person with pancreatic adenocarcinoma. […] Gemcitabine (Gemzar, Henry Schein, Inc, Pittsburgh Pa., and Myoderm Medical, Norristown, Pa.) is formulated in 0.9% saline and administered by intraperitoneal injection (IP) q3Dx4 (every 3 days for a total of 4 doses) at 2.5 mg/kg or 10 mg/kg, or by IV injection twice weekly (BIW) at 20 mg/kg IVU. […] Tumors are measured twice weekly using a vernier caliper. […] Tumor size and body weight are measured approximately twice a week for the duration of the study. […] Tumor growth continued to be monitored after the dosing period in some studies. […] Average tumor volume is reported as a function of time for selected groups of selected studies in Figures A, B, and C. Measurements from day 0 to 18, 21 or 22 are analyzed as specified in Tables 4-9. […] For each animal, the log tumor volume at day 0 is subtracted from the log tumor volume on the subsequent days. This difference vs. time is used to calculate an area under the curve (AUC) for each animal using the trapezoid rule. In instances when an animal in a treatment group is removed early from the study, the last observed tumor value is carried forward through all subsequent time points. […] The standard error of the synergy score is computed based on the variation in the AUC values among the animals. […] Otherwise, the combination is classified as antagonistic.

[5] = 120 mg/kg MLN4924 Q2Dx3/week SC
[6] = 60 mg/kg MLN4924 BID Q2Dx3/week SC

Compound: NS(=O)(=O)OC[C@@H]1C[C@@H](n2ccc3c(N[C@H]4CCc5ccccc54)ncnc32)C[C@@H]1O [MLN4924, ((1S,2S,4R)-4-(4-((1S)-2,3-dihydro-1H-inden-1-ylamino)-7H-pyrrolo[2,3-d]-pyrimidin-7-yl)-2-hydroxycyclopentyl)methyl sulfamate]
- tumor course after the treatment period, to end of study on day 95 (in words) (LXFE409 xenograft model; LXFE409 sqNSCLC model, FIG. 4, MLN4924 120 mg/kg SC Q2Dx3/week for 3 weeks, docetaxel 10 mg/kg IV QW for 3 weeks, single agents or combination): regrew after the treatment period ended
- average tumor volume day 21 (LXFE409 xenograft model; 90 mg/kg MLN4924 Q2Dx3/week SC): 707.5 mm^3
- average tumor volume day 21 (LXFE409 xenograft model; [5]): 167.1 mm^3
- average tumor volume day 21 (NCI-H69 xenograft model [1]; 60 mg/kg MLN4924 BID Q3D x 2/week SC): 597.1 mm^3
- average tumor volume day 21 (NCI-H69 xenograft model [1]; 120 mg/kg MLN4924 BID Q3D x 2/week SC): 415.2 mm^3
- tumor growth during the treatment period (in words) (NCI-H69 xenograft model [1]; FIG. 3, MLN4924 SC 120 mg/kg BID Q3Dx2/week, carboplatin 50 mg/kg IP QW, single agents or their combination): inhibited tumor growth compared to the control vehicle group
- average tumor volume day 21 ([2]; 90 mg/kg MLN4924 Q2Dx3/week SC): 776.8 mm^3
- average tumor volume day 21 [2, 5]: 774.2 mm^3
- average tumor volume day 21 (LU1143 xenograft model): 801.2 mm^3
- average tumor volume day 22 (NCI-H69 xenograft model [3]; 45 mg/kg MLN4924 BID Q3Dx2/week SC): 438.5 mm^3
- average tumor volume day 22 (NCI-H69 xenograft model [3]; [6]): 475.4 mm^3
- average tumor volume day 22 (NCI-H82 xenograft model; [6]): 861.9 mm^3
- average tumor volume day 22 (NCI-H82 xenograft model; 60 mg/kg MLN4924 BID Q3Dx2/week SC): 783.3 mm^3
- average tumor volume day 18 ([4]; PHTX249Pa xenograft, 90 mg/kg MLN4924 BID BIW SC): 1748.9 mm^3
- tumor growth compared to the control vehicle group (in words) ([4]; PHTX249 Pa xenograft, gemcitabine 20 mg/kg IV BIW, MLN4924 90 mg/kg SC BID BIW, single agents or their combination): did not show growth inhibition compared to the control vehicle group
